Laboratory results reported in patent US8282778B2, “Prevention of bacterial spore formation in a broke system of a board machine” (Kemira Oyj, priority 2006, dated 2012).
Read-outs that look alike come from different tables or passages of the source.

What was measured:
[1] = test system: Bacillus licheniformis 217 strain; test: Example 1: sporulation of bacilli isolated from a board machine in sterilized dilute broke with spray starch; format: cell-based
Method: In this laboratory experiment, the effect of bivalent manganese and bivalent iron as well as a chelating agent (DTPA, diethylenetriaminepentaacetic acid) on the sporulation of bacilli isolated from a board machine was studied under conditions of the broke system. For the experiment, an inoculum free of spores was prepared from the Bacillus licheniformis 217 strain by carrying out three consecutive cultivations in a liquid medium for 24 hours (Tryptone-Yeast Extract Medium, +50° C., agitation at 100 rpm) using a low inoculation ratio (0.1% by volume/volume). Broke free of spores was produced by sterilizing dilute broke of the board machine. A low amount of spray starch used in the board machine was added to the broke to make up for the amount of starch consumed by bacterial activity during the transportation of the broke sample to the laboratory. The broke was divided into aliquots of 25 ml each and filled in tubes, followed by the addition of the test agents at different concentrations. […] The amounts of aerobic bacteria and aerobic spores in each tube were determined after different exposure times. The amount of aerobic bacteria were determined by a filtering method, whereas aerobic spores were determined from pasteurized (20 min, 80° C.) samples using the pour plate method (Plate Count Agar in both cases, 45° C., 3 d).

[2] = test system: Bacillus licheniformis 217 strain; test: Example 3: sporulation of bacilli in broke, metals, DTPA and test product C; format: cell-based
Method: In this laboratory experiment, the effect of bivalent manganese and bivalent iron as well as a chelating agent (DTPA, diethylenetriaminepentaacetic acid) on the sporulation of bacilli isolated from a board machine was studied under conditions of the broke system. For the experiment, an inoculum free of spores was prepared from the Bacillus licheniformis 217 strain by carrying out three consecutive cultivations in a liquid medium for 24 hours (Tryptone-Yeast Extract Medium, +50° C., agitation at 100 rpm) using a low inoculation ratio (0.1% by volume/volume). Broke free of spores was produced by sterilizing dilute broke of the board machine. A low amount of spray starch used in the board machine was added to the broke to make up for the amount of starch consumed by bacterial activity during the transportation of the broke sample to the laboratory. The broke was divided into aliquots of 25 ml each and filled in tubes, followed by the addition of the test agents at different concentrations. 0.2% stock solutions of manganese (Mn(II)Cl2×4H2O) and iron (Fe(II)SO4×7H2O) in deionized water were sterile filtered using 0.2 μm spray filters. 25 μl of the Bacillus culture free of spores were added to each tube, followed by keeping the tubes at 45° C. (agitation at 100 rpm). The amounts of aerobic bacteria and aerobic spores in each tube were determined after different exposure times. The amount of aerobic bacteria were determined by a filtering method, whereas aerobic spores were determined from pasteurized (20 min, 80° C.) samples using the pour plate method (Plate Count Agar in both cases, 45° C., 3 d).
In this laboratory experiment, the effect of a test product C containing a dispersing agent and DTPA on sporulation of bacilli isolated from a board machine was studied under the conditions in the broke system. […]

[3] = pulping process; cited from earlier work
[4] = test system: Bacillus subtilis bacteria; settings: cited from earlier work
aconitase enzyme = aconitase enzyme (Bacillus subtilis, UniProt P09339); settings: concentrations of less than 1 mM; cited from earlier work
[5] = test system: Bacillus subtilis bacteria; settings: cited from earlier work; remark: listed apart in the source

aconitase enzyme, sequence (P09339 whole entry): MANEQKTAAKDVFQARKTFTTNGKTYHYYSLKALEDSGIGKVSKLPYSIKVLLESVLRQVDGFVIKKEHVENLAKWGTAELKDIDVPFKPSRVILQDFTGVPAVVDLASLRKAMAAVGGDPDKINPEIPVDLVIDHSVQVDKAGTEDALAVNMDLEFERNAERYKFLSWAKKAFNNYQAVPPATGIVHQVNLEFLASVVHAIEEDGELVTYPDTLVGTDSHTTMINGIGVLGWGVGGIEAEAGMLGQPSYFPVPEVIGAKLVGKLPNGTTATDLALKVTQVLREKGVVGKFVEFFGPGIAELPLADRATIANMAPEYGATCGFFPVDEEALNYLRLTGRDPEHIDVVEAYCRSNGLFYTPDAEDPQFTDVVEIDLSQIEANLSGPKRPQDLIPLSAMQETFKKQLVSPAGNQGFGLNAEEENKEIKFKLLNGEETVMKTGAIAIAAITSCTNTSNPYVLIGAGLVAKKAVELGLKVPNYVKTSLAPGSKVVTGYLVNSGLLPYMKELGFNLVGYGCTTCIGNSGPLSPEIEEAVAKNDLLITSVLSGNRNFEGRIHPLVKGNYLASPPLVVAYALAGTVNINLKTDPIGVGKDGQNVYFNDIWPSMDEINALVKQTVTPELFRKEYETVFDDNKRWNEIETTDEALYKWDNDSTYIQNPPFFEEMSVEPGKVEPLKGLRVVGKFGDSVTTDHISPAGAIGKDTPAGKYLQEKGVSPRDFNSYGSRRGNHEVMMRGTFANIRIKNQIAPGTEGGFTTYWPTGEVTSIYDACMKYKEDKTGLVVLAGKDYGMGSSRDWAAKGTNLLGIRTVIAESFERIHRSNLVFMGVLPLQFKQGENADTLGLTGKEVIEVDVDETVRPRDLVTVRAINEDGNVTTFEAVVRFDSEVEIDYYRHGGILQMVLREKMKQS

## O=C(O)CN(CCN(CC(=O)O)CC(=O)O)CCN(CC(=O)O)CC(=O)O [DTPA, diethylenetriaminepentaacetic acid]
[1]; 12.5 ppm (as active agent)
  reduction of sporulation: 79%
[1]; 17.5 ppm
  inhibition of sporulation: total inhibition
[2]
  toxicity to bacilli (amount of aerobic bacteria, FIG. 5): neither DTPA nor the test product C was toxic
[2]; 12 ppm (as active agent)
  reduction of sporulation: 99.4%
  sporulation frequency: 0.11%

## O=P(O)(O)CN(CCN(CP(=O)(O)O)CP(=O)(O)O)CCN(CP(=O)(O)O)CP(=O)(O)O [DTPMP, diethylenetriamine-pentakis methylenephosphonic acid]
[3]
  chelating performance for manganese: over 95%

## O=C(O)c1ccccn1 [alpha picolinic acid]
[4]; concentration of 0.4 mM
  sporulation: reduced sporulation
[4]; concentrations of less than 1 mM (<123 ppm)
  growth: not inhibited

## c1ccc(-c2ccccn2)nc1 [dipyridyl]
Aconitase enzyme
  aconitase enzyme inhibition: inhibited

## [Mn+2] [manganese]
[5]; 0.006 ppm manganese addition
  amount of sporulating cells of the wild type strain: about 2.6%
[5]; 0.8 ppm of manganese added
  amount of sporulating cells of the wild type strain: 39%
[5]; manganese addition of 0.1 ppm or more, growth medium rich in nutrients
  amount of sporulating cells: increased

## c1cnc2c(c1)ccc1cccnc12 [o-phenanthroline]
Aconitase enzyme
  aconitase enzyme inhibition: inhibited

## O=C(O)c1ccc2ccccc2n1 [quinaldic acid]
Aconitase enzyme
  aconitase enzyme inhibition: inhibited
